From article PMC7603451, “A novel human pluripotent stem cell-based assay to predict developmental toxicity” (Archives of Toxicology, 2020)
Where two headings read alike, the source gives them in different places.

Experiments:
[1] = system: IMR90-1 hiPSC embryoid bodies differentiating into cardiomyocytes; assay: PluriBeat assay, beat score of EBs, IMR90-1
Procedure: (§1) Cardiac differentiation was performed as published (Fischer et al. [2018]) with slight modifications. Briefly, hiPSC were harvested from culture dishes with good colony morphology (day 5–6 after split) by removing medium and adding Gibco™ TrypLE™ Select (Thermo Fisher Scientific) for 1–2 min. As soon as single cells appeared at the borders of the colonies, TrypLE was removed by suction and the cells harvested as single cells in mTeSR-ROCK (mTeSR1 with 10 µM Y27632 dihydrochloride). Cells were counted and 5 × 10^4 cells/ml were seeded at 100 µl per well into a 96-well Polystyrene Conical Bottom MicroWell™ Plate (249,952, Thermo Fisher Scientific). The plates were centrifuged at 500g for 5 min at room temperature. After 20 h of incubation, EBs had formed (one EB per well) and cardiac differentiation was induced by exchanging 80 µl medium to D0 medium. All medium recipes are included in supplementary Table 1. After 24 ± 2 h, 80 µl medium was exchanged to TS medium. After 24 ± 2 h, 80 µl medium were exchanged to Wnt medium. After 24 ± 2 h, 80 µl medium was exchanged with TS medium. Three days later (72 ± 2 h), 60 µl medium was exchanged with 80 µl fresh TS medium added per well. The following day beating of the cardiomyocyte containing EBs was scored.
(§2) Test compounds were added to the specific daily differentiation medium before medium exchange on the 96-well plates. Vehicle was kept constant across the plates at 0.1%. Thirty-two EBs were exposed to each concentration in each experiment. On the last day of the assay, the beat score was determined as follows: Each EB was observed until contraction was seen, though for a maximum of 10 s. If no movement was seen, the beat score 0 was given. If the entire area of the sphere contracted, a beat score of 2 was given. Everything in between was given a score of 1.
(§3) The beat score for each condition was determined as the average beat score of the 32 EBs. All experiments were performed in biological triplicates if not stated otherwise. For gene expression analysis and compound testing, data from 32 EBs (= 32 wells each containing one EB) were analyzed for a given concentration or time point.
(§4) IC25 values were defined as absolute IC25 values giving the concentration that inhibits the beat score by 25%. […] Calculations were based on the beat score of > 90 EBs from three independent experiments per cell line.
(§5) The following analysis was performed in the statistical program R-studio: To analyze the impact of the test compounds on the beat score, we performed an ordinal logistic regression using the polr package in R with beat score and concentration as factors on n ≥ 90 EBs from three biological replicates. The LOEC was defined as the lowest observable effect concentration of test compound causing an effect with a p value < 0.05.

[2] = system: BIONi010-C hiPSC grown in monolayer; assay: Cytotoxicity, CellTiter-Glo 2.0 ATP-based cell viability assay; set-up: species or system human; conditions: for concentration showing cytotoxicity: human, 48 h
Procedure: Before initiating tests on cardiomyocyte differentiation for test chemicals, cell viability was determined to ascertain that any further testing was done at non-cytotoxic concentrations. On the day of the experiment, 50 µl/well hESC-Qualified Matrigel (354,277, Corning) was added to flat-bottom 96-well plates (Corning) and incubated at 37 °C and 95% humidity until use. BIONi010-C hiPSC were harvested from a […] by Gibco™ TrypLE™ Select (Thermo Fisher Scientific) and a single-cell suspension was prepared in mTeSR™1 serum-free medium (STEMCELL Technologies). Matrigel was removed from plates and a final concentration of 1 × 10^4 cells/well was added. After 24 h, mTESR1 medium was exchanged for fresh medium. Cell were exposed to the test chemicals after another 24 h and for 48 h in total with a vehicle kept constant across the plates at 0.1%. […] Assay reagent (100 µl/well) was added, plates were left on a shaker table for 2 min and successively for 10 min at room temperature. Lysates were transferred to white plates and luminescence was measured (EnSpire, Perkin Elmer).

[3] = system: IMR90-4 EBs; assay: EB volume after exposure, IMR90-4; type: cell-based, human; conditions: for concentration with effect on EB volume: IMR90-4, last day of assay
Procedure: (§6) The average of 32 EBs per condition was analyzed. […] EB size was analysed using a one-way ANOVA without matching and multiple comparisons with Dunnett’s correction.

[4] = system: IMR90-4 hiPSC embryoid bodies differentiating into cardiomyocytes; assay: PluriBeat assay, beat score of EBs, IMR90-4; conditions: for effect on beat score: up to maximum concentration tested
Procedure: as §1, §2, §3, §4, §5

[5] = system: IMR90-1 EBs; assay: EB volume after exposure, IMR90-1; type: cell-based, human; conditions: for concentration with effect on EB volume: IMR90-1, last day of assay
Procedure: as §6

[6] = system: BIONi010-C hiPSC embryoid bodies differentiating into cardiomyocytes; assay: PluriBeat assay, beat score of EBs, BIONi010-C
Procedure: as §1, §2, §3, §4, §5

[7] = system: EBs made from the three cell lines BIONi010-C, IMR90-1, and IMR90-4; assay: PluriBeat assay, statements without a named cell line
Procedure: as §2
For analysis of the EB size, the EBs were imaged with a light microscope after assessing the beat score. The plates were left at room temperature to decrease the beat rate before imaging, thereby decreasing the risk of false small outliers due to contractions. The images were further analyzed with ImageJ, where the diameter of the individual EBs was measured manually. From this, the volume of each EB was calculated and the average of the controls on each plate set to 100% to calculate the volume (%) for the exposed EBs. The average of 32 EBs per condition was analyzed.

[8] = system: BIONi010-C EBs; assay: EB volume after exposure, BIONi010-C; type: cell-based, human
Procedure: as §6

[9] = system: mouse ESCs; conditions: cited from earlier work
[10] = cited from earlier work
[11] = system: hESCs; set-up: method as in Kameoka et al. [2014]; conditions: hESC monolayer, 3 days; ref Kameoka et al. [2014]; cited from earlier work
[12] = system: hiPSC; conditions: cited from earlier work
[13] = system: rat embryos; set-up: method as in Rettie et al. [1986]; conditions: ex vivo rat embryos, gestation day 10; ref Rettie et al. [1986]; cited from earlier work
[14] = system: in vitro assays for developmental toxicity; conditions: previous in vitro developmental toxicity studies, cited from earlier work
[15] = IMR90-4, beat score on last day of assay, lowest concentration with p < 0.05
[16] = human, 8 days (beat score read on the last day of the assay)

Fc1ccc([C@]2(Cn3cncn3)O[C@H]2c2ccccc2Cl)cc1 (racemic) [Epoxiconazole, epoxiconazole]
LOEC ([1]; IMR90-1, beat score on last day of assay, lowest concentration with p < 0.05): 1.3 µM
concentration at which EBs stopped beating ([1]; human, 7 days): 2.5 µM
concentration showing cytotoxicity [2]: ≥ 50 µM
effect on EB volume [3]: significantly smaller spheres
LOEC [4, 15]: 1.3 µM
concentration at which EBs stopped beating ([4]; human, 7 days): 2.5 µM
effect on EB volume [5]: non-significant trend
LOEC ([6]; BIONi010-C, beat score on last day of assay, lowest concentration with p < 0.05): 5 µM
lowest concentration decreasing the beating (LOEC) ([7]; beat score, cell line not stated): 1.3 µM
proportion of beating cardiac EBs [7, 16]: ~0%
effect on EB volume [8]: significantly smaller spheres
embryotoxicity in the mEST [9]: weakly embryotoxic
IC50 ([9]; mEST based on mouse ESCs, ref Dreisig et al. [2013]): 34 µM

O=C1CCC(N2C(=O)c3ccccc3C2=O)C(=O)N1 (stereo not shown) [Thalidomide, thalidomide]
clinical plasma concentrations for therapeutic use ([10]; human, ref Chung et al. [2004], Kodama et al. [2009]): 1 to 6 µM
internal exposure ([10]; regular dose for pregnant women of 200 mg, ref Teo et al. [2004]): 4.7 µM
LOEC ([1]; human, 7 days): 2.3 µM
effect on viability ([2]; BIONi010-C monolayer, 48 h exposure, 25, 50, 100 and 200 µM): did not reduce viability in any of the concentrations tested
concentration showing cytotoxicity [2]: > 200 µM
concentration with effect on EB volume [3]: ≥ 18 µM
LOEC [4, 15]: no LOEC could be determined
effect on beat score ([4]; IMR90-4): non-significant trend
IC25 (absolute inhibition concentration of 25%) with 95% confidence intervals ([4]; human, 7 days): > 36 µM
LOEC ([4]; human, 7 days): > 36 µM
IC50 [11]: 0.5 µM
concentration with effect on EB volume [5]: ≥ 2.3 µM
LOEC ([6]; human, 7 days): 2.3 µM
decrease of EB volume ([7]; human, 7 days, 2.3 µM): ~60%
lowest concentration decreasing the beating (LOEC) [7, 16]: 2.3 µM
concentration with significant decrease in EB volume ([8]; BIONi010-C, last day of assay): ≥ 2.3 µM
IC50 ([12]; original EST protocol, ref Aikawa et al. [2014]): 450 µM
IC50 ([12]; ref Aikawa [2020]): 5.5 µM

CCCC(CCC)C(=O)O [Valproic acid, valproic acid]
therapeutic serum levels ([10]; human, ref Dasgupta [2016]): around 700 µM
effect on beat score ([1]; IMR90-1, up to maximum concentration tested): did not lead to a significant decrease in beat score
IC25 (absolute inhibition concentration of 25%) with 95% confidence intervals ([1]; human, 7 days): > 300 µM
LOEC ([1]; human, 7 days): > 300 µM
reduction of viability ([2]; BIONi010-C monolayer, 48 h exposure, 400 µM): more than 20%
concentration showing cytotoxicity [2]: above 300 µM
concentration with effect on EB volume [3]: 300 µM
effect on beat score ([4]; IMR90-4): did not lead to a significant decrease in beat score
IC25 (absolute inhibition concentration of 25%) with 95% confidence intervals ([4]; human, 7 days): > 300 µM
LOEC ([4]; human, 7 days): > 300 µM
concentration with effect on EB volume [5]: 200 µM
effect on beat score ([6]; BIONi010-C, up to maximum concentration tested): did not lead to a significant decrease in beat score
IC25 (absolute inhibition concentration of 25%) with 95% confidence intervals ([6]; human, 7 days): > 300 µM
LOEC ([6]; human, 7 days): > 300 µM
effect on EB volume ([8]; BIONi010-C, last day of assay): did not lead to apparent effects
concentration with toxic effects [13]: 800 µM
IC50 ([14]; ref Aikawa et al. [2014], Shinde et al. [2016]): 868 to 1000 µM
IC50 ([14]; ref Uibel et al. [2010], Palmer et al. [2013], Kameoka et al. [2014], Aikawa [2020]): 3 to 205 µM
